Laboratory results as given in PubChem BioAssay (NCI).
Where “and” joins values, the source holds several entries; their conditions need not be identical. Equal values may be shown once.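 Grown in 96-well plates, cells were treated for 48 hours with each compound at five concentrations. Insufficient inhibition: endpoint recorded as highest concentration tested. GI50 = concentration required for 50% inhibition of growth. Definition used: TGI = concentration required for complete inhibition of growth.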

Key:
Assay in all cases: NCI tumour cell line growth inhibition, 48 h
HCT-116 colon = tested on: HCT-116 colon
SW-620 colon = tested on: SW-620 colon
SR leukemia = tested on: SR leukemia
HCT-15 colon = tested on: HCT-15 colon
NCI-H460 lung = tested on: NCI-H460 lung
K-562 leukemia = tested on: K-562 leukemia
MDA-MB-231 breast = tested on: MDA-MB-231 breast
786-0 renal = tested on: 786-0 renal
SK-MEL-2 melanoma = tested on: SK-MEL-2 melanoma
CAKI-1 renal = tested on: CAKI-1 renal

| Compound | GI50 (HCT-116 colon) | TGI (HCT-116 colon) | GI50 (SW-620 colon) | TGI (SW-620 colon) | TGI (SR leukemia) | GI50 (HCT-15 colon) | TGI (HCT-15 colon) | GI50 (NCI-H460 lung) | TGI (NCI-H460 lung) | GI50 (K-562 leukemia) | TGI (K-562 leukemia) | GI50 (MDA-MB-231 breast) | TGI (MDA-MB-231 breast) | GI50 (786-0 renal) | TGI (786-0 renal) | GI50 (SK-MEL-2 melanoma) | TGI (SK-MEL-2 melanoma) | GI50 (CAKI-1 renal) | TGI (CAKI-1 renal) | GI50 (SR leukemia) |
| --- | --- | --- | --- | --- | --- | --- | --- | --- | --- | --- | --- | --- | --- | --- | --- | --- | --- | --- | --- | --- |
| O=C(O)Cc1cccc2c(=O)cc(-c3ccccc3)oc12 | 294 µM | 212 µM and > 868 µM | 313 µM | > 1000 µM | 250 µM and > 917 µM | 343 µM | 250 µM and > 1000 µM | 545 µM | > 1000 µM | 148 µM | 250 µM and > 844 µM | 834 µM | > 1000 µM | > 250 µM | > 1000 µM | 844 µM | 250 µM and > 1000 µM | > 46.8 µM and 163 µM | > 72 µM and 194 µM and 420 µM | – |
| CCC(CC)n1cnc2c(-c3cnc(N)cn3)nc(N3CC4CCC(C3)O4)nc21 | 0.63 µM | > 100 µM | 0.76 µM | > 100 µM | > 100 µM | 0.432 µM | > 100 µM | 0.17 µM | > 100 µM | 0.854 µM | > 100 µM | 0.191 µM | > 100 µM | 0.237 µM | > 100 µM | 0.391 µM | 3.25 µM | 0.108 µM | 1.73 µM | 0.351 µM |
| CCN1CCN(CCNc2nccc(-c3c(-c4ccc(F)c(O)c4)nc4occn34)n2)S1(=O)=O | 3.76 µM | > 100 µM | 8.42 µM | > 100 µM | > 100 µM | 3.93 µM | > 100 µM | 4.92 µM | > 100 µM | 3.67 µM | > 100 µM | 32.3 µM | > 100 µM | 9.44 µM | > 100 µM | 3.98 µM | > 100 µM | 4.3 µM | > 100 µM | 7.46 µM |
| O=C1Nc2c(Cl)cc(Cl)cc2/C1=N/N=C/c1ccco1 | – | > 100 µM | – | > 100 µM | > 100 µM | – | > 100 µM | – | > 100 µM | – | > 100 µM | – | 58 µM | – | > 100 µM | – | 57.1 µM | – | 72.8 µM | – |
| O=C1C2CCN(CC2)C1CN1CCOCC1 (centres undefined) | – | 3.73 µM | – | 3.2 µM | 35.5 µM | – | 4.94 µM | – | 33.7 µM | – | 20.3 µM | – | 40.5 µM | – | 3.55 µM | – | 32.5 µM | – | 4.09 µM | – |
| Oc1ccccc1-c1nn(CNc2ccc(Cl)cc2)c(=S)o1 | 18.2 µM | 51.4 µM | 22.4 µM | > 100 µM | 43.4 µM | 20 µM | 45.4 µM | 25.7 µM | > 100 µM | 0.263 µM | > 100 µM | > 100 µM | > 100 µM | > 100 µM | > 100 µM | > 100 µM | > 100 µM | 3.71 µM | > 100 µM | 16 µM |
| Cc1ccc2c(C(C[N+](=O)[O-])c3ccccc3)c(-c3ccccc3)[nH]c2c1 (centres undefined) | 30.2 µM | > 95 µM | 16.6 µM | > 95 µM | > 95 µM | 20.7 µM | > 95 µM | 30.1 µM | > 95 µM | 7.14 µM | > 95 µM | 35.9 µM | > 95 µM | 40.3 µM | > 95 µM | 46.3 µM | > 95 µM | 4.73 µM | > 95 µM | 4.54 µM |
| CC1SC(c2ccccc2Cl)N(NC(=O)C(O)c2ccccc2)C1=O (centres undefined) | 96.1 µM | > 100 µM | > 100 µM | > 100 µM | > 100 µM | 66.9 µM | > 100 µM | 66.9 µM | > 100 µM | 58.5 µM | > 100 µM | 33.8 µM | > 100 µM | > 100 µM | > 100 µM | > 100 µM | > 100 µM | 44.6 µM | > 100 µM | 40 µM |
| O=C(c1c(F)c(F)c(F)c(F)c1F)c1c(F)c(F)c(F)c(F)c1F | – | 2.96 µM | – | 60.6 µM | 1.07 µM | – | 3.83 µM | – | 5.24 µM | – | > 100 µM | – | 3.46 µM | – | 1.64 µM | – | 7.02 µM | – | 1.69 µM | – |
| COc1ccc2cc(-c3cnc4nonc4n3)ccc2c1 | 2.12 µM | > 100 µM | 1.25 µM | > 100 µM | > 100 µM | 0.684 µM | > 100 µM | 11 µM | > 100 µM | 0.468 µM | > 100 µM | 14.1 µM | > 100 µM | 4.17 µM | > 100 µM | 3.66 µM | > 100 µM | 2.83 µM | > 100 µM | 0.423 µM |
| O=C1c2ccccc2C(=O)N1CCc1ncc(-c2ccccc2)[nH]1 | – | > 100 µM | – | > 100 µM | > 100 µM | – | > 100 µM | – | > 100 µM | – | > 100 µM | – | > 100 µM | – | > 100 µM | – | > 100 µM | – | > 100 µM | – |
| Cn1ncc(Cl)c1-c1cc(C(=O)N[C@H](CN)Cc2cccc(F)c2)sc1Cl | 1.27 µM and 2.84 µM | > 5.17 µM and 13.6 µM | 2.16 µM and 7.33 µM | > 10 µM and 21 µM | 3.11 µM and 4.74 µM | 1.44 µM and 2.59 µM | > 10 µM and 16.2 µM | 0.406 µM and 0.568 µM | > 10 µM and 13.3 µM | 1.33 µM and 2.24 µM | 5.16 µM and 6.74 µM | 2.25 µM and 2.4 µM | > 8.32 µM and 8.33 µM | 0.0578 µM and 0.0899 µM | 1.85 µM and 4.12 µM | 1.98 µM and 4.65 µM | > 6.11 µM and 12.3 µM | 1.45 µM and 3.03 µM | > 9.48 µM and 15.5 µM | 0.749 µM and 1.54 µM |
| CC1=C(C#N)C23C(=O)N(c4ccccc4)C(=O)C2=C(O)C=CC3(O)N1Cc1ccc(Cl)cc1Cl (centres undefined) | 1.73 µM | 3.45 µM | 2.07 µM | 4.29 µM | 4.49 µM | 5.88 µM | 19 µM | 3.09 µM | 12.3 µM | 3.76 µM | 9.26 µM | 3.93 µM | 16.1 µM | 3.99 µM | 14.5 µM | 2.98 µM | 11.5 µM | 2.94 µM | 12.1 µM | 1.85 µM |
| O=C(O)c1cccc(S(=O)(=O)NCCO)c1 | – | > 100 µM | – | > 100 µM | > 100 µM | – | > 100 µM | – | > 100 µM | – | > 100 µM | – | > 100 µM | – | > 100 µM | – | > 100 µM | – | > 100 µM | – |
| COc1ccc(Nc2nc(NCCNc3ccnc4cc(Cl)ccc34)nc(N3CCOCC3)n2)cc1 | 3.01 µM | 14.8 µM | 3.47 µM | 13.4 µM | 7.36 µM | 2.63 µM | 10.9 µM | 4.58 µM | 19.3 µM | 2.09 µM | 7.82 µM | 2.73 µM | 10.2 µM | 2.11 µM | 12.3 µM | 2.19 µM | 4.28 µM | 4.17 µM | 17.5 µM | 2.01 µM |
| NC(=S)N/N=C/c1ccc(OC(=O)COc2cc(Cl)c(Cl)cc2Cl)cn1 | 4.25 µM | > 100 µM | 5.75 µM | > 100 µM | > 100 µM | 6.84 µM | > 100 µM | 6.1 µM | > 100 µM | 5.56 µM | > 100 µM | 4.53 µM | > 100 µM | 3.54 µM | > 100 µM | 12.7 µM | > 100 µM | 3.97 µM | > 100 µM | 4.7 µM |
| COc1cc(-c2nn(-c3cccc(NC(=O)Nc4ccc(Cl)c(C(F)(F)F)c4)c3)cc2-c2ccncc2)ccc1Cl | 1.17 µM | 4.56 µM | 1.29 µM | 29.9 µM | 2.48 µM | 1.23 µM | 7.05 µM | 1.11 µM | 4.79 µM | 1.21 µM | > 32.5 µM | 0.76 µM | 2.6 µM | 1.61 µM | 8.02 µM | 1.01 µM | 2.58 µM | 0.992 µM | 4.72 µM | 0.884 µM |
